Results reported in patent publication US20070117743A1, “New antitumoral compounds” (priority 2003, published 2007).
Where a SMILES comes first, the peptide text is derived from it. Bridges are numbered along the chain shown (N, C = ends). [ ]: non-standard residue; d: D form. The star is where a group is joined. d(aIle) = CC[C@H](C)[C@@H](N)C(=O)O; d(aThr) = C[C@@H](O)[C@@H](N)C(=O)O; Hexanoyl(5-Me) = CC(C)CCCC(=O)*; Orn = NCCC[C@H](N)C(=O)O; Dhb = C/C=C(\N)C(=O)O

Columns and labels:
Type in all cases: cell-based, human
K-562 = experiment: SRB colorimetric assay of cell growth and viability, K-562; conditions: K-562, 48 hours exposure; for CC50: read-out: LC50 K-562
HeLa = experiment: SRB colorimetric assay of cell growth and viability, HeLa; conditions: HELA, 48 hours exposure; for CC50: read-out: LC50 HELA
LNCaP = experiment: SRB colorimetric assay of cell growth and viability, LNCaP; conditions: LN-caP, 48 hours exposure; for CC50: read-out: LC50 LN-caP
IGROV-1 = experiment: SRB colorimetric assay of cell growth and viability, IGROV-1; conditions: IGROV; 48 hours exposure
A-549 = experiment: SRB colorimetric assay of cell growth and viability, A-549; conditions: A-549, 48 hours exposure; for GI50: read-out: GI50 A-549; for CC50: read-out: LC50 A-549
SK-BR-3 = experiment: SRB colorimetric assay of cell growth and viability, SK-BR-3; conditions: SK-BR-3; 48 hours exposure
PANC-1 = experiment: SRB colorimetric assay of cell growth and viability, PANC-1; conditions: PANC-1, 48 hours exposure; for CC50: read-out: LC50 PANC-1
HT-29 = experiment: SRB colorimetric assay of cell growth and viability, HT-29; conditions: HT-29, 48 hours exposure; for GI50: read-out: GI50 HT-29; for CC50: read-out: LC50 HT-29
IGROV-ET = experiment: SRB colorimetric assay of cell growth and viability, IGROV-ET; conditions: IGROV-ET, 48 hours exposure; for CC50: read-out: LC50 IGROV-ET
LoVo-Dox = experiment: SRB colorimetric assay of cell growth and viability, LoVo-Dox; conditions: LOVO-DOX, 48 hours exposure; for CC50: read-out: LC50 LOVO-DOX
Summary of the method: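 Tumor cells are continuously exposed to sample for 48 hours, with vehicle DMSO:EtOH:PBS (0.5:0.5:99), after an 18-hour drug-free attachment period. Bound SRB, measured at 490 nm, reflects cell mass; GI, TGI and LC are derived from triplicate means.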

DU-145 = experiment: SRB colorimetric assay of cell growth and viability, DU-145; conditions: DU-145; 48 hours exposure
HeLa-APL = experiment: SRB colorimetric assay of cell growth and viability, HeLa-APL; conditions: HELA-APL, 48 hours exposure; for CC50: read-out: LC50 HELA-APL
SK-MEL-28 = experiment: SRB colorimetric assay of cell growth and viability, SK-MEL-28; conditions: MEL-28, 48 hours exposure; for CC50: read-out: LC50 MEL-28

Row | SMILES | GI50 (K-562) [µM] | TGI K-562 (K-562) [Molar] | CC50 (K-562) [µM] | GI50 (HeLa) [µM] | TGI HELA (HeLa) [Molar] | CC50 (HeLa) [µM] | GI50 (LNCaP) [µM] | TGI LN-caP (LNCaP) [Molar] | CC50 (LNCaP) [µM] | GI50 (IGROV-1) [µM] | LC50 (concentration causing 50% net cell killing) (IGROV-1) [µM] | TGI IGROV (IGROV-1) [Molar] | TGI A-549 (A-549) [Molar] | GI50 (A-549) [µM] | CC50 (A-549) [µM] | GI50 (SK-BR-3) [µM] | LC50 (SK-BR-3) [µM] | TGI SK-BR-3 (SK-BR-3) [Molar] | GI50 (PANC-1) [µM] | TGI PANC-1 (PANC-1) [Molar] | further results
1 | C/C=C1\NC(=O)[C@H](Cc2ccccc2)NC(=O)[C@@H](C(C)C)NC(=O)[C@@H]([C@@H](C)CC)NC(=O)[C@H](NC(=O)[C@H](NC(=O)[C@H](CCCN)NC(=O)[C@H]2CCCN2C(=O)[C@H](NC(=O)[C@@H](NC(=O)[C@H](Cc2ccccc2)NC(=O)[C@H](NC(=O)CCCC(C)C)C(C)C)C(C)C)C(C)C)[C@@H](C)CC)[C@@H](C)OC(=O)[C@H](C(C)C)NC1=O [Compound 114, [Phe^12]-KF] ({Hexanoyl(5-Me)}-[dV]FV[dV][dP][Orn][d(aIle)][d(aThr)][d(aIle)][dV]F[Dhb]V; ester 8-C) | 0.0787 | 3.71E−07 | 4.03 | 0.259 | 9.25E−07 | 5.69 | 0.053 | 3.00E−07 | 4.7 | 0.114 | 6.56 | 3.10E−07 | 3.50E−07 | 0.157 | 1.52 | 0.207 | 6.56 | 4.62E−07 | 0.233 | 1.16E−06 | CC50 (PANC-1): 6.56 µM; TGI HT-29 (HT-29): 3.22E−07 Molar; GI50 (HT-29): 0.157 µM; CC50 (HT-29): 0.696 µM; GI50 (IGROV-ET): 0.301 µM; TGI IGROV-ET (IGROV-ET): 8.40E−07 Molar; CC50 (IGROV-ET): 6.38 µM; GI50 (LoVo-Dox): 0.18 µM; TGI LOVO-DOX (LoVo-Dox): 3.94E−07 Molar; CC50 (LoVo-Dox): 4.27 µM; GI50 (DU-145): 0.18 µM; LC50 (concentration causing 50% net cell kill) (DU-145): 1.73 µM; TGI DU-145 (DU-145): 3.75E−07 Molar; GI50 (HeLa-APL): 0.143 µM; TGI HELA-APL (HeLa-APL): 3.49E−07 Molar; CC50 (HeLa-APL): 2.03 µM; GI50 (SK-MEL-28): 0.17 µM; TGI MEL-28 (SK-MEL-28): 3.36E−07 Molar; CC50 (SK-MEL-28): 0.748 µM
2 | C/C=C1\NC(=O)[C@H](Cc2ccccc2)NC(=O)[C@@H](C(C)C)NC(=O)[C@@H]([C@@H](C)CC)NC(=O)[C@H](NC(=O)[C@H](NC(=O)[C@H](CCCN)NC(=O)[C@H]2CCCN2C(=O)[C@H](NC(=O)[C@@H](NC(=O)[C@@H]2CCCN2C(=O)[C@H](NC(=O)CCCC(C)C)C(C)C)C(C)C)C(C)C)[C@@H](C)CC)[C@@H](C)OC(=O)[C@H](C(C)C)NC1=O [Compound 117, [Pro^12]-KF] ({Hexanoyl(5-Me)}-[dV]PV[dV][dP][Orn][d(aIle)][d(aThr)][d(aIle)][dV]F[Dhb]V; ester 8-C) | 0.841 | 2.10E−06 | 5.22 | 1.53 | 2.89E−06 | 5.46 | 1.51 | 2.87E−06 | 5.45 | 1.97 | 6.78 | 3.70E−06 | 6.78E−06 | 3.29 | 6.78 | 1.55 | 5.62 | 2.96E−06 | 3.88 | 6.78E−06 | CC50 (PANC-1): 6.78 µM; TGI HT-29 (HT-29): 3.38E−06 Molar; GI50 (HT-29): 0.0176 µM; CC50 (HT-29): ≥ 6.49 µM; GI50 (IGROV-ET): 1.82 µM; TGI IGROV-ET (IGROV-ET): 3.11E−06 Molar; CC50 (IGROV-ET): 5.34 µM; GI50 (LoVo-Dox): 1.83 µM; TGI LOVO-DOX (LoVo-Dox): 3.59E−06 Molar; CC50 (LoVo-Dox): 6.78 µM; GI50 (DU-145): 2.41 µM; LC50 (concentration causing 50% net cell kill) (DU-145): 6.78 µM; TGI DU-145 (DU-145): 5.43E−06 Molar; GI50 (HeLa-APL): 1.84 µM; TGI HELA-APL (HeLa-APL): 3.98E−06 Molar; CC50 (HeLa-APL): 6.78 µM; GI50 (SK-MEL-28): 2 µM; TGI MEL-28 (SK-MEL-28): 4.26E−06 Molar; CC50 (SK-MEL-28): 6.78 µM
3 | C/C=C1\NC(=O)[C@H](Cc2ccccc2)NC(=O)[C@@H](C(C)C)NC(=O)[C@@H]([C@@H](C)CC)NC(=O)[C@H](NC(=O)[C@H](NC(=O)[C@H](CCCN)NC(=O)[C@H]2CCCN2C(=O)[C@H](NC(=O)[C@@H](NC(=O)CNC(=O)[C@H](NC(=O)CCCC(C)C)C(C)C)C(C)C)C(C)C)[C@@H](C)CC)[C@@H](C)OC(=O)[C@H](C(C)C)NC1=O [Compound 111, [Gly^12]-KF] ({Hexanoyl(5-Me)}-[dV]GV[dV][dP][Orn][d(aIle)][d(aThr)][d(aIle)][dV]F[Dhb]V; ester 8-C) | 0.144 | 3.66E−07 | 2.06 | 1.26 | 2.94E−06 | 6.86 | 0.4 | 6.97E−06 | 6.97 | 0.167 | 1.33 | 3.72E−07 | 2.59E−06 | 1.09 | 6.16 | 0.41 | 5.94 | 1.54E−06 | 0.453 | 1.71E−06 | CC50 (PANC-1): 5.81 µM; TGI HT-29 (HT-29): 2.59E−06 Molar; GI50 (HT-29): 0.511 µM; CC50 (HT-29): 6.97 µM; GI50 (IGROV-ET): 0.264 µM; TGI IGROV-ET (IGROV-ET): 1.00E−06 Molar; CC50 (IGROV-ET): 6.97 µM; GI50 (LoVo-Dox): 0.324 µM; TGI LOVO-DOX (LoVo-Dox): 1.24E−06 Molar; CC50 (LoVo-Dox): 4.39 µM; GI50 (DU-145): 0.725 µM; LC50 (concentration causing 50% net cell kill) (DU-145): 6.97 µM; TGI DU-145 (DU-145): 2.53E−06 Molar; GI50 (HeLa-APL): 0.355 µM; TGI HELA-APL (HeLa-APL): 1.21E−06 Molar; CC50 (HeLa-APL): 3.51 µM; GI50 (SK-MEL-28): 0.25 µM; TGI MEL-28 (SK-MEL-28): 6.31E−07 Molar; CC50 (SK-MEL-28): 2.9 µM
